Like-named read-outs stand apart in the source and are kept apart here.
Key:
[1] = target: T1, 5-HT3 (serotonin 3 receptor) (Homo sapiens, UniProt P46098); assay: SafetyScreen44: 5-HT3; type: binding
T1 construct: purchased Eurofins Cerep SafetyScreen44
T1 sequence (P46098 24-478): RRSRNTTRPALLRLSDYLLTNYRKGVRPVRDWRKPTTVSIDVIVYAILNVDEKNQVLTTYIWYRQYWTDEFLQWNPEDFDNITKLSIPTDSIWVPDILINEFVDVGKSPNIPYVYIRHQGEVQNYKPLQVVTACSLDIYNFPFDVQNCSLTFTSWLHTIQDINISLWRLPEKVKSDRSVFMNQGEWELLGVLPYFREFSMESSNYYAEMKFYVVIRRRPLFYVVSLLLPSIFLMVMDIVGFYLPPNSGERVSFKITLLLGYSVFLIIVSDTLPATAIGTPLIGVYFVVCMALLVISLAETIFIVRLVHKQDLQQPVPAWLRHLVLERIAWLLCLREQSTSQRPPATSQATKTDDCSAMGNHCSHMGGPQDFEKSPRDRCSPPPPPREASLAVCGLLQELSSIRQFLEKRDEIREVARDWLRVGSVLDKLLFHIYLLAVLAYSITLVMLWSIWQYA

[2] = target: T2, CB1 (cannabinoid receptor type 1) (Homo sapiens, UniProt P21554); assay: SafetyScreen44: CB1; type: binding
T2 construct: purchased Eurofins Cerep SafetyScreen44
T2 sequence (P21554 whole entry): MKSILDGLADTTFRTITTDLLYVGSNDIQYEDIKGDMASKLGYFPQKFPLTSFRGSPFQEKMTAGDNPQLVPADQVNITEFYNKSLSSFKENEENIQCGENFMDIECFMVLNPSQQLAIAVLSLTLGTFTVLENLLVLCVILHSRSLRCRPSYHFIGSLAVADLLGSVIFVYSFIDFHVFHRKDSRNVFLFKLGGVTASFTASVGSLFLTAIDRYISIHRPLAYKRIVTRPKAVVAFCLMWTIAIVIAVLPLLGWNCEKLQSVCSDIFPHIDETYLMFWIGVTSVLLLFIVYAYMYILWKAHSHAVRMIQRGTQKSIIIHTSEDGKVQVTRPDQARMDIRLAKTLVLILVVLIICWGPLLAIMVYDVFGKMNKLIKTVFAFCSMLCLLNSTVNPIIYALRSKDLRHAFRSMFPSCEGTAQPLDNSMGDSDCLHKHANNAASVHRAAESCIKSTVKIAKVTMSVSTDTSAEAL

[3] = target: T3, δ (DOP) (delta opioid receptor) (Homo sapiens, UniProt P41143); assay: SafetyScreen44: δ (DOP); type: binding
T3 construct: purchased Eurofins Cerep SafetyScreen44
T3 sequence (P41143 whole entry): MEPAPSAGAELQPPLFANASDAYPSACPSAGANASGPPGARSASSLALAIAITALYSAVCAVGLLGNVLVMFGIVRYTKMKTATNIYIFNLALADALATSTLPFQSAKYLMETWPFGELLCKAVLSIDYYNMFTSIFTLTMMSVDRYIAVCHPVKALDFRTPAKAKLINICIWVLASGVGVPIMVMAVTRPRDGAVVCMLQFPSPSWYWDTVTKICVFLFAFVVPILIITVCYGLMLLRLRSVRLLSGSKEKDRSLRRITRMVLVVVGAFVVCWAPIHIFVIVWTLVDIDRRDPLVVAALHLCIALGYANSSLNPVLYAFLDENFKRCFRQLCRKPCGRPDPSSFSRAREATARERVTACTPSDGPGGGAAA

[4] = target: T4, D1 (dopamine D1 receptor) (Homo sapiens, UniProt P21728); assay: SafetyScreen44: D1; type: binding
T4 construct: purchased Eurofins Cerep SafetyScreen44
T4 sequence (P21728 whole entry): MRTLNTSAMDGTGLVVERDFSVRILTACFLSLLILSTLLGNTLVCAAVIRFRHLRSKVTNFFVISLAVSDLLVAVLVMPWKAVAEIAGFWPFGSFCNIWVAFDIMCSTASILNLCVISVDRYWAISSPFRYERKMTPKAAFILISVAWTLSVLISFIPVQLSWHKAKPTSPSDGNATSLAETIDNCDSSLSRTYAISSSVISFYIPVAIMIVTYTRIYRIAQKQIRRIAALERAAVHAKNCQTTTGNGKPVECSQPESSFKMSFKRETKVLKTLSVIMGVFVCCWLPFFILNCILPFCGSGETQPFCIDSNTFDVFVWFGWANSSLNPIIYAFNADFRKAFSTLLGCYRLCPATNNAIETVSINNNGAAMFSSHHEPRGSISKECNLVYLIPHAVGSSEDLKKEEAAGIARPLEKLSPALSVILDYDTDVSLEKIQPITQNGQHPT

[5] = target: T5, D2S (short dopamine D2 receptor) (Homo sapiens, UniProt P14416); assay: SafetyScreen44: D2S; type: binding
T5 construct: purchased Eurofins Cerep SafetyScreen44
T5 sequence (P14416 1-414 isoform P14416-2): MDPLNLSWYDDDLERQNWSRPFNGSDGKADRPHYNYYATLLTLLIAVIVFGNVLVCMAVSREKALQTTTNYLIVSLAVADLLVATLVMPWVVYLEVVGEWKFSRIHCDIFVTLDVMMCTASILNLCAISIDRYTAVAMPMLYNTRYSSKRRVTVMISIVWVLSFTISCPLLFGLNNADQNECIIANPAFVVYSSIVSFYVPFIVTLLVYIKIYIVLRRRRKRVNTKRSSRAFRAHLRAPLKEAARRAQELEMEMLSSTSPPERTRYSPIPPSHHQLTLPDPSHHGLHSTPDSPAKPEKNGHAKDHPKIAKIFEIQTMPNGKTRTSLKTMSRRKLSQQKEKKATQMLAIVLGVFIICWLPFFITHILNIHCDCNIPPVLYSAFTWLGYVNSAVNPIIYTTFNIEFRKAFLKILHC

[6] = target: T6, 5-HT1A (serotonin 1A receptor) (Homo sapiens, UniProt P08908); assay: SafetyScreen44: 5-HT1A; type: binding
T6 construct: purchased Eurofins Cerep SafetyScreen44
T6 sequence (P08908 1-422): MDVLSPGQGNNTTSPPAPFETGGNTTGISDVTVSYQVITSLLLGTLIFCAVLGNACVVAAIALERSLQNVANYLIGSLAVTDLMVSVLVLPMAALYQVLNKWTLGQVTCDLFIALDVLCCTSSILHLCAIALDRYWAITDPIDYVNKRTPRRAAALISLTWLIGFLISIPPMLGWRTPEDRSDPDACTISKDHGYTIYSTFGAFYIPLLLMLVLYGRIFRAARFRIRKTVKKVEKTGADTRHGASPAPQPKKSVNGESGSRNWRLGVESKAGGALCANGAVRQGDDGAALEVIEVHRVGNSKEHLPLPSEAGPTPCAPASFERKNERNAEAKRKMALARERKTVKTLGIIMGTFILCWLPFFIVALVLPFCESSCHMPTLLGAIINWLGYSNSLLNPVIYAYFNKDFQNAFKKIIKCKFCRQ

[7] = target: T7, 5-HT2B (serotonin 2B receptor) (Homo sapiens, UniProt P41595); assay: SafetyScreen44: 5-HT2B; type: binding
T7 construct: purchased Eurofins Cerep SafetyScreen44
T7 sequence (P41595 whole entry): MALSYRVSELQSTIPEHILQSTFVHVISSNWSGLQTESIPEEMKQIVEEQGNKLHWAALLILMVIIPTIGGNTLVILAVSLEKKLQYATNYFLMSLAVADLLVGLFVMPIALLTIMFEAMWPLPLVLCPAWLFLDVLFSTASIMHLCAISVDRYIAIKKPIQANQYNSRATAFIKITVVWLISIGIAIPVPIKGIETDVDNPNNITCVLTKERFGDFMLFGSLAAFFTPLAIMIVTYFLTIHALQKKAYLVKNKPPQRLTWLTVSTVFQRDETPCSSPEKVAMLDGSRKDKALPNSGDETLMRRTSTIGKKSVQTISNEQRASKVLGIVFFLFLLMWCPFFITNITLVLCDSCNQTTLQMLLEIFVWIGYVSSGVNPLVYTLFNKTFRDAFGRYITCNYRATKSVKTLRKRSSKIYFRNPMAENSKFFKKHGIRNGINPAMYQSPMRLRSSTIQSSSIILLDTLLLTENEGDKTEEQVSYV

COX2 = target: T8, COX2 (Homo sapiens, UniProt P35354); assay: SafetyScreen44: COX2; type: biochemical
T8 construct: purchased Eurofins Cerep SafetyScreen44
T8 sequence (P35354 18-604): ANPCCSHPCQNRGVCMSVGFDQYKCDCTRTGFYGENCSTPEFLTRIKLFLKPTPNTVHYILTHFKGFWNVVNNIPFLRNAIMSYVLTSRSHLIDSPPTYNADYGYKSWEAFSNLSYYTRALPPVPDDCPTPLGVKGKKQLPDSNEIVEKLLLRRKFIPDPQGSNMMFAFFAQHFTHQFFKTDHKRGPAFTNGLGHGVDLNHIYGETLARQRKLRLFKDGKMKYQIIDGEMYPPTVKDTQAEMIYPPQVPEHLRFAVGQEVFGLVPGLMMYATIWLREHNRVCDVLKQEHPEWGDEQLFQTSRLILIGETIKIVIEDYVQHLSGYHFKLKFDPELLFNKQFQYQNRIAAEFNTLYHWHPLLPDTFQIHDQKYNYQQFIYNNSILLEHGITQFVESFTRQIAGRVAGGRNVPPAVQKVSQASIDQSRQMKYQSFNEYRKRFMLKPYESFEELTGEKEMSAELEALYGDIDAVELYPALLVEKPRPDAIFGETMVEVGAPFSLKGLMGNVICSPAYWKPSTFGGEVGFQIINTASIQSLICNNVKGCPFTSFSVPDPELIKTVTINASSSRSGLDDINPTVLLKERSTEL

[8] = target: T9, β1 (beta-1 adrenergic receptor) (Homo sapiens, UniProt P08588); assay: SafetyScreen44: β1; type: binding
T9 construct: purchased Eurofins Cerep SafetyScreen44
T9 sequence (P08588 whole entry): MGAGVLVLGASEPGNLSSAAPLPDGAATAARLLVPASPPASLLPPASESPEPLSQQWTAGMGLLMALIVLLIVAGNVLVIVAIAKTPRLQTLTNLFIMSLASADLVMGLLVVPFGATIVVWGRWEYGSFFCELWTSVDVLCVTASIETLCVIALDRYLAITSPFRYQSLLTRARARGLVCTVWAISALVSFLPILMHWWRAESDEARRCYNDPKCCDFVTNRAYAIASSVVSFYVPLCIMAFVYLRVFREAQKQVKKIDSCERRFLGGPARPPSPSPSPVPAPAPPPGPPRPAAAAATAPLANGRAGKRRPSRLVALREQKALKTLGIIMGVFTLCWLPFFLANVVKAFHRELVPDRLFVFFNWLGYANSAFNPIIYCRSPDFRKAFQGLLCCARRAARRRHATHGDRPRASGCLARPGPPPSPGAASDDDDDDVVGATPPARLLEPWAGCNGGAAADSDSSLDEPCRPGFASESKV

## CC(=O)NCCCC[C@@H]1NC(=O)[C@H](Cc2c[nH]c3c(C)cccc23)NC(=O)[C@H]([C@@H](C)O)NC(=O)[C@H](CC(N)=O)NC(=O)[C@@H](NC(C)=O)C(C)(C)SSC(C)(C)[C@@H](C(=O)N[C@@H](Cc2ccc(OCCN)cc2)C(=O)N[C@@H](Cc2ccc3ccccc3c2)C(=O)NC2(C(=O)N[C@@H](CCC(=O)O)C(=O)N[C@@H](CC(N)=O)C(=O)N[C@@H](Cc3cccnc3)C(=O)N(C)CC(N)=O)CCOCC2)NC1=O [JNJ-77242113, S^3,1,S^3,6-cyclo[N-acetyl-3-sulfanyl-L-valyl-L-asparaginyl-L-threonyl-7-methyl-L-tryptophyl-N^6-acetyl-L-lysyl-3-sulfanyl-L-valyl-O-(2-aminoethyl)-L-tyrosyl-3-(naphthalen-2-yl)-L-alanyl-4-aminooxan-4-carbonyl-L-α-glutamyl-L-asparaginyl-3-(pyridin-3-yl)-L-alanyl-N^2-methylglycinamide]]
[1]; 1st run, read-out: Percent inhibition of control ligand binding, 5-HT3, 1st run
  inhibition at 10 µM: 0.7%
[1]; 2nd run, read-out: Percent inhibition of control ligand binding, 5-HT3, 2nd run
  inhibition at 10 µM: 3.4%
[1]; mean of 2 runs, read-out: Percent inhibition of control ligand binding, 5-HT3, Mean
  inhibition at 10 µM: 2.1%
[2]; 1st run, read-out: Percent inhibition of control ligand binding, CB1, 1st run
  inhibition at 10 µM: 2.5%
[2]; 2nd run, read-out: Percent inhibition of control ligand binding, CB1, 2nd run
  inhibition at 10 µM: -6.9%
[2]; mean of 2 runs, read-out: Percent inhibition of control ligand binding, CB1, Mean
  inhibition at 10 µM: -2.2%
[3]; 1st run, read-out: Percent inhibition of control ligand binding, δ (DOP), 1st run
  inhibition at 10 µM: -7.8%
[3]; 2nd run, read-out: Percent inhibition of control ligand binding, δ (DOP), 2nd run
  inhibition at 10 µM: 0.4%
[3]; mean of 2 runs, read-out: Percent inhibition of control ligand binding, δ (DOP), Mean
  inhibition at 10 µM: -3.7%
[4]; 1st run, read-out: Percent inhibition of control ligand binding, D1, 1st run
  inhibition at 10 µM: 2.2%
[4]; 2nd run, read-out: Percent inhibition of control ligand binding, D1, 2nd run
  inhibition at 10 µM: 3.7%
[4]; mean of 2 runs, read-out: Percent inhibition of control ligand binding, D1, Mean
  inhibition at 10 µM: 2.9%
[5]; 1st run, read-out: Percent inhibition of control ligand binding, D2S, 1st run
  inhibition at 10 µM: -6.6%
[5]; 2nd run, read-out: Percent inhibition of control ligand binding, D2S, 2nd run
  inhibition at 10 µM: -6.6%
[5]; mean of 2 runs, read-out: Percent inhibition of control ligand binding, D2S, Mean
  inhibition at 10 µM: -6.6%
[6]; 1st run, read-out: Percent inhibition of control ligand binding, 5-HT1A, 1st run
  inhibition at 10 µM: -5.6%
[6]; 2nd run, read-out: Percent inhibition of control ligand binding, 5-HT1A, 2nd run
  inhibition at 10 µM: 2.8%
[6]; mean of 2 runs, read-out: Percent inhibition of control ligand binding, 5-HT1A, Mean
  inhibition at 10 µM: -1.4%
[7]; 1st run, read-out: Percent inhibition of control ligand binding, 5-HT2B, 1st run
  inhibition at 10 µM: -19.6%
[7]; 2nd run, read-out: Percent inhibition of control ligand binding, 5-HT2B, 2nd run
  inhibition at 10 µM: -6.7%
[7]; mean of 2 runs, read-out: Percent inhibition of control ligand binding, 5-HT2B, Mean
  inhibition at 10 µM: -13.1%
COX2; 1st run, read-out: Percent inhibition of control ligand binding, COX2, 1st run
  inhibition at 10 µM: 7.8%
COX2; 2nd run, read-out: Percent inhibition of control ligand binding, COX2, 2nd run
  inhibition at 10 µM: -0.9%
COX2; mean of 2 runs, read-out: Percent inhibition of control ligand binding, COX2, Mean
  inhibition at 10 µM: 3.4%
[8]; 1st run, read-out: Percent inhibition of control ligand binding, β1, 1st run
  inhibition at 10 µM: -5.1%
[8]; 2nd run, read-out: Percent inhibition of control ligand binding, β1, 2nd run
  inhibition at 10 µM: 7.7%
[8]; mean of 2 runs, read-out: Percent inhibition of control ligand binding, β1, Mean
  inhibition at 10 µM: 1.3%

Source: paper PMC11289455 (Scientific Reports, 2024)
